Values of other authors, collected in patent US20050287230A1, “Method of producing ginsenoside 20 (R)-Rh2 and composition of matter thereof” (priority 2004, published 2005).
Where two headings read alike, the source gives them in different places. Blank lines part the entries; values can stand above or below the compound they belong to.

Legend:
[1] = Stomach irrigation with 2 g/kg
[2] = system: J744 macrophage
[3] = subcutaneous injection 10 mg/kg
[4] = system: LAK cells; conditions: tumor patient
[5] = system: Morris liver cancer, human cervical cancer, B16 malignant melanoma and Hela cells
[6] = system: HL60
[7] = system: HRA cells; conditions: dosage-dependent
[8] = system: sarcoma 180; conditions: 5 mg/kg dosage
[9] = mouse, orally taken
[10] = molecular target: rhTNF-a (Homo sapiens, UniProt P01375); conditions: external experiment
rhTNF-a, sequence (P01375 77-233 limits assumed): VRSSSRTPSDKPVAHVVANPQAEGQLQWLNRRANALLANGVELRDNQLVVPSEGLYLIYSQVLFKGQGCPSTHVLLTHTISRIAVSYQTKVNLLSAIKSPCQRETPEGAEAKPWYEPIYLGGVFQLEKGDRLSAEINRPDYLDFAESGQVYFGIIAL

[11] = system: B16 melanoma cells

Compound: CC(C)=CC[C@@H](O)C1=CC(=O)c2c(O)ccc(O)c2C1=O [Shikonin]
- solubility in water: insoluble
- death [1]: no dead mouse

- solubility in water: insoluble
Compound: C[C@H]1[C@H](C)CC[C@]2(C(=O)O)CC[C@]3(C)C(=CC[C@@H]4[C@@]5(C)CC[C@H](O)C(C)(C)[C@@H]5CC[C@]43C)[C@H]12 [Ursolic acid]
- reversal of the inhibition function of MΦ ([2]; 50 μg/ml): partially deteriorates
- reversal of the inhibition function of MΦ ([2]; 100 μg/ml): totally deteriorate
- serum gorge invert ammonia enzyme [3]: can reduce

Compound: CC(C)=CCC[C@](C)(O[C@@H]1O[C@H](CO)[C@@H](O)[C@H](O)[C@H]1O)[C@H]1CC[C@]2(C)[C@@H]1[C@H](O)C[C@@H]1[C@@]3(C)CC[C@H](O)C(C)(C)[C@@H]3[C@@H](O[C@@H]3O[C@H](CO)[C@@H](O)[C@H](O)[C@H]3O[C@@H]3O[C@@H](C)[C@H](O)[C@@H](O)[C@H]3O)C[C@]12C [ginsenoside Re]
- level above which effect upon LAK activity appears [4]: > 5 µg/mL

Compound: CC(C)=CCC[C@](C)(O)[C@H]1CC[C@]2(C)[C@@H]1[C@H](O)C[C@@H]1[C@@]3(C)CC[C@H](O[C@@H]4O[C@H](CO)[C@@H](O)[C@H](O)[C@H]4O)C(C)(C)[C@@H]3CC[C@]12C [ginsenoside Rh2, ginseng dialcohol-3-O-β-D-glucopyranoside]
- inhibition effect on the proliferation ([5]; 2-10 μg/ml in culture solution): different degrees of inhibition effect
- inhibition on the proliferation function ([5]; external experiment): outstanding inhibition
- inhibition of HL60 tumor strain [6]: inhibit the human promyelcytic leukemia HL60 tumor strain significantly
- inhibition of HL60 tumor strain ([6]; listed as ginsenoside-Rh2): significant effect
- effective range for inhibition of proliferation [7]: 10˜100 μmol/L

Compound: CC(C)=CCC[C@@](C)(O)[C@H]1CC[C@]2(C)[C@@H]1[C@H](O)C[C@@H]1[C@@]3(C)CC[C@H](O)C(C)(C)[C@@H]3[C@@H](O[C@@H]3O[C@H](CO)[C@@H](O)[C@H](O)[C@H]3O)C[C@]12C [ginsenoside 20(R)-Rh1]
- inhibition of HL60 tumor strain [6]: inhibit the human promyelcytic leukemia HL60 tumor strain significantly

Compound: Lentinan
- inhibition rate of anti-tumor [8]: 97.5%
- solubility in water: almost indissoluble
- acute toxicity LD50 [9]: > 1250 mg/kg

Compound: CC(C)=CCC[C@](C)(O[C@@H]1O[C@H](CO[C@@H]2OC[C@H](O[C@@H]3OC[C@@H](O)[C@H](O)[C@H]3O)[C@H](O)[C@H]2O)[C@@H](O)[C@H](O)[C@H]1O)[C@H]1CC[C@]2(C)[C@@H]1[C@H](O)C[C@@H]1[C@@]3(C)CC[C@H](O[C@@H]4O[C@H](CO)[C@@H](O)[C@H](O)[C@H]4O[C@@H]4O[C@H](CO)[C@@H](O)[C@H](O)[C@H]4O)C(C)(C)[C@@H]3CC[C@]12C [ginsenoside-Ra1]
- increase of rhTNF-a activity [10]: 134 times

Compound: CC(C)=CCC[C@](C)(O)[C@H]1CC[C@]2(C)[C@@H]1[C@H](O)C[C@@H]1[C@@]3(C)CC[C@H](O)C(C)(C)[C@@H]3[C@@H](O[C@@H]3O[C@H](CO)[C@@H](O)[C@H](O)[C@H]3O)C[C@]12C [ginsenoside-Rh1]
- concentration that completely inhibits the proliferation [11]: above 8.0 μg/ml
